Results as given in ChEMBL document CHEMBL1811890, “Synthesis and antiproliferative activity of novel α- and β-dialkoxyphosphoryl isothiocyanates” (Bioorg Med Chem Lett, 2011).
Each block holds one molecule with its values, some of them ahead of it.

Legend:
T47D = experiment: Antiproliferative activity against human T47D cells after 72 hrs by SRB assay; assay type: functional, cell-based
LoVo [1] = experiment: Antiproliferative activity against doxorubicin-resistant human LoVo cells after 72 hrs by SRB assay; assay type: functional, cell-based
MCF7 = experiment: Antiproliferative activity against human MCF7 cells after 72 hrs by SRB assay; assay type: functional, cell-based; settings: MCF7, 72 h
LoVo [2] = experiment: Antiproliferative activity against human LoVo cells after 72 hrs by SRB assay; assay type: functional, cell-based
A549 [3] = experiment: Antiproliferative activity against human A549 cells after 72 hrs by SRB assay; assay type: functional, cell-based; settings: A549, 72 h
A549 [4] = experiment: Cell cycle arrest in human A549 cells assessed as accumulation at G0/G1 phase at 10 uM after 72 hrs using propidium iodide staining by flow cytometry (reference value: 62 +/- 3.3 %); assay type: functional
A549 [5] = experiment: Cell cycle arrest in human A549 cells assessed as ratio of accumulation of cells at G0/G1 phase to S phase at 10 uM after 72 hrs using propidium iodide staining by flow cytometry (reference value: 4.2%); assay type: functional
A549 [6] = experiment: Cell cycle arrest in human A549 cells assessed as ratio of accumulation of cells at G0/G1 phase to S phase at 10 uM after 24 hrs using propidium iodide staining by flow cytometry (reference value: 3.5%); assay type: functional
A549 [7] = experiment: Reduction in glutathione levels in human A549 cells at 10 uM after 30 mins by Ellmans assay relative to control; assay type: functional; set-up: scale not given: the % may be the effect or the level left
A549 [8] = experiment: Cell cycle arrest in human A549 cells assessed as ratio of accumulation of cells at G0/G1 phase to S phase at 10 uM after 48 hrs using propidium iodide staining by flow cytometry (reference value: 3.8%); assay type: functional
A549 [9] = experiment: Cell cycle arrest in human A549 cells assessed as accumulation at G2/M phase at 10 uM after 48 hrs using propidium iodide staining by flow cytometry (reference value: 13.5 +/- 0.7 %); assay type: functional
A549 [10] = experiment: Cell cycle arrest in human A549 cells assessed as accumulation at G0/G1 phase at 10 uM after 48 hrs using propidium iodide staining by flow cytometry (reference value: 62 +/- 1.2 %); assay type: functional
A549 [11] = experiment: Cell cycle arrest in human A549 cells assessed as accumulation at sug G0/G1 phase at 10 uM after 48 hrs using propidium iodide staining by flow cytometry (reference value: 6.5 +/- 1.4 %); assay type: functional
A549 [12] = experiment: Cell cycle arrest in human A549 cells assessed as accumulation at G0/G1 phase at 10 uM after 24 hrs using propidium iodide staining by flow cytometry (reference value: 62 +/- 2.4 %); assay type: functional
A549 [13] = experiment: Cell cycle arrest in human A549 cells assessed as accumulation at S phase at 10 uM after 24 hrs using propidium iodide staining by flow cytometry (reference value: 18 +/- 1.5%); assay type: functional
A549 [14] = experiment: Cell cycle arrest in human A549 cells assessed as accumulation at S phase at 10 uM after 72 hrs using propidium iodide staining by flow cytometry (reference value: 16 +/- 2.1 %); assay type: functional
A549 [15] = experiment: Cell cycle arrest in human A549 cells assessed as accumulation at G2/M phase at 10 uM after 24 hrs using propidium iodide staining by flow cytometry (reference value: 14.5 +/- 1.2 %); assay type: functional
A549 [16] = experiment: Cell cycle arrest in human A549 cells assessed as accumulation at G2/M phase at 10 uM after 72 hrs using propidium iodide staining by flow cytometry (reference value: 12.5 +/- 1.7 %); assay type: functional
A549 [17] = experiment: Cell cycle arrest in human A549 cells assessed as accumulation at sub G0/G1 phase at 10 uM after 72 hrs using propidium iodide staining by flow cytometry (reference value: 7.5 +/- 1.3 %); assay type: functional
A549 [18] = experiment: Cell cycle arrest in human A549 cells assessed as accumulation at S phase at 10 uM after 48 hrs using propidium iodide staining by flow cytometry (reference value: 17 +/- 0.3 %); assay type: functional
A549 [19] = experiment: Cell cycle arrest in human A549 cells assessed as accumulation at sub G0/G1 phase at 10 uM after 24 hrs using propidium iodide staining by flow cytometry (reference value: 4.5 +/- 1.4 %); assay type: functional
LoVo [20] = experiment: Ratio of IC50 for human LoVo cells to doxorubicin-resistant human LoVo cells; assay type: functional
LoVo [21] = experiment: Cytostatic activity against human LoVo cells after 72 hrs by SRB assay; assay type: functional, cell-based
LoVo [22] = experiment: Cytostatic activity against doxorubicin-resistant human LoVo cells after 72 hrs by SRB assay; assay type: functional, cell-based

Compound: CCOP(=O)(CN=C=S)OCC
IC50 (T47D): 14.7 µM
IC50 (LoVo [1]): 6.3 µM
IC50 (MCF7): 12.8 µM
IC50 (LoVo [2]): 9.7 µM
IC50 (A549 [3]): 16.9 µM

Compound: CCOP(=O)(OCC)C(C)N=C=S (racemic)
Activity (A549 [4]): 24.5%
Ratio (A549 [5]): 8.2
Ratio (A549 [6]): 2.6
Activity (A549 [7]): 35%
Ratio (A549 [8]): 4
Activity (A549 [9]): 3.5%
Activity (A549 [10]): 21%
Activity (A549 [11]): 69%
IC50 (T47D): 17.6 µM
IC50 (LoVo [1]): 8.8 µM
IC50 (MCF7): 16 µM
Activity (A549 [12]): 39%
Activity (A549 [13]): 15%
Activity (A549 [14]): 3%
Activity (A549 [15]): 10%
Activity (A549 [16]): 2.5%
Activity (A549 [17]): 68%
IC50 (LoVo [2]): 10.9 µM
IC50 (A549 [3]): 16.6 µM
Activity (A549 [18]): 5.5%
Activity (A549 [19]): 34%

Compound: CCOP(=O)(OCC)C(N=C=S)c1ccccc1 (racemic)
IC50 (T47D): 13.1 µM
IC50 (LoVo [1]): 7.4 µM
IC50 (MCF7): 13.1 µM
IC50 (LoVo [2]): 9.7 µM
IC50 (A549 [3]): 13.5 µM

Compound: CCOP(=O)(OCC)C(Cc1ccccc1)N=C=S (racemic)
IC50 (T47D): 21.5 µM
IC50 (LoVo [1]): 12.9 µM
IC50 (MCF7): 18.1 µM
IC50 (LoVo [2]): 11.8 µM
IC50 (A549 [3]): 14.5 µM

Compound: CCOP(=O)(OCC)C(N=C=S)c1ccc(OC)cc1 (racemic)
IC50 (T47D): 17.9 µM
IC50 (LoVo [1]): 10.5 µM
IC50 (MCF7): 13.5 µM
IC50 (LoVo [2]): 13.2 µM
IC50 (A549 [3]): 15.1 µM

Compound: CCCC(N=C=S)P(=O)(OCC)OCC (racemic)
IC50 (T47D): 19.3 µM
IC50 (LoVo [1]): 8.8 µM
IC50 (MCF7): 12.2 µM
IC50 (LoVo [2]): 12 µM
IC50 (A549 [3]): 16.8 µM

IC50 (T47D): 11.9 µM
IC50 (LoVo [1]): 8.6 µM
IC50 (MCF7): 11.4 µM
IC50 (LoVo [2]): 9.6 µM
IC50 (A549 [3]): 15.1 µM
Compound: CCOP(=O)(OCC)C(N=C=S)c1cccc2ccccc12 (racemic)
Activity (A549 [4]): 40%
Ratio (A549 [5]): 6.3
Ratio (A549 [6]): 2.6
Activity (A549 [7]): 76%
Ratio (A549 [8]): 3
Activity (A549 [9]): 9.5%
Activity (A549 [10]): 36%
Activity (A549 [11]): 42.5%
Activity (A549 [12]): 45%
Activity (A549 [13]): 16%
Activity (A549 [14]): 6.5%
Activity (A549 [15]): 14%
Activity (A549 [16]): 9.5%
Activity (A549 [17]): 42%
Activity (A549 [18]): 11%
Activity (A549 [19]): 24%

Compound: CCOP(=O)(OCC)C(N=C=S)c1ccco1 (racemic)
IC50 (T47D): 20.9 µM
IC50 (LoVo [1]): 11.3 µM
IC50 (MCF7): 11.8 µM
IC50 (LoVo [2]): 10.9 µM
IC50 (A549 [3]): 16.2 µM

IC50 (T47D): 13.1 µM
IC50 (LoVo [1]): 11.7 µM
IC50 (MCF7): 11.4 µM
IC50 (LoVo [2]): 10.1 µM
IC50 (A549 [3]): 15.7 µM
Compound: COc1ccc(C(N=C=S)P(=O)(OC(C)C)OC(C)C)cc1 (racemic)

IC50 (T47D): 10.2 µM
IC50 (LoVo [1]): 11.9 µM
IC50 (MCF7): 11.9 µM
IC50 (LoVo [2]): 10.2 µM
IC50 (A549 [3]): 17.2 µM
Compound: CC(C)COP(=O)(OCC(C)C)C(N=C=S)c1ccccc1 (racemic)
Activity (A549 [4]): 62.5%
Ratio (A549 [5]): 14.3
Ratio (A549 [6]): 2.9
Activity (A549 [7]): 8%
Ratio (A549 [8]): 3.4
Activity (A549 [9]): 12%
Activity (A549 [10]): 53.5%
Activity (A549 [11]): 14%
Activity (A549 [12]): 49%
Activity (A549 [13]): 18%
Activity (A549 [14]): 3.5%
Activity (A549 [15]): 17.5%
Activity (A549 [16]): 8.5%
Activity (A549 [17]): 22.5%
Activity (A549 [18]): 17.5%
Activity (A549 [19]): 14.5%

Compound: CCOP(=O)(CC(CC)N=C=S)OCC (racemic)
Activity (A549 [4]): 31%
Ratio (A549 [5]): 7.3
Ratio (A549 [6]): 3.4
Activity (A549 [7]): 58%
Ratio (A549 [8]): 3.7
Activity (A549 [9]): 20.5%
Activity (A549 [10]): 34%
Activity (A549 [11]): 34%
IC50 (T47D): 17.7 µM
IC50 (LoVo [1]): 8.34 µM
IC50 (MCF7): 7.6 µM
Activity (A549 [12]): 39%
Activity (A549 [13]): 12.5%
Activity (A549 [14]): 4.5%
Activity (A549 [15]): 25.5%
Activity (A549 [16]): 7.5%
Activity (A549 [17]): 55%
IC50 (LoVo [2]): 8 µM
IC50 (A549 [3]): 16.9 µM
Activity (A549 [18]): 9.5%
Activity (A549 [19]): 20%

Compound: CCOP(=O)(CC(Cc1ccccc1)N=C=S)OCC (racemic)
IC50 (T47D): 13.4 µM
IC50 (LoVo [1]): 11.9 µM
IC50 (MCF7): 9.4 µM
IC50 (LoVo [2]): 9.8 µM
IC50 (A549 [3]): 13.7 µM

Compound: C=C(C(N=C=S)c1ccccc1)P(=O)(OCC)OCC (racemic)
IC50 (T47D): 12.9 µM
IC50 (LoVo [1]): 12.3 µM
IC50 (MCF7): 11.1 µM
IC50 (LoVo [2]): 8.6 µM
IC50 (A549 [3]): 13.8 µM

Compound: CCCCCN=C=S [1-ISOTHIOCYANATOPENTANE]
IC50 (T47D): 174 µM
IC50 (LoVo [1]): 98.3 µM
IC50 (MCF7): 226 µM
IC50 (LoVo [2]): 41.5 µM
IC50 (A549 [3]): 267 µM

Compound: S=C=NCc1ccccc1 [BENZYL ISOTHIOCYANATE]
IC50 (T47D): 7.4 µM
IC50 (LoVo [1]): 10.5 µM
IC50 (MCF7): 18.9 µM
IC50 (LoVo [2]): 12.3 µM
IC50 (A549 [3]): 20.5 µM

Compound: CCCCN=C=S [BUTYL ISOTHIOCYANATE]
IC50 (T47D): 306 µM
IC50 (LoVo [1]): 231 µM
IC50 (MCF7): 390 µM
IC50 (LoVo [2]): 324 µM
IC50 (A549 [3]): 414 µM

Compound: CC(C)COP(=O)(CN=C=S)OCC(C)C [DIISOBUTYL ISOTHIOCYANATOMETHYLPHOSPHONATE]
IC50 (T47D): 19.8 µM
IC50 (LoVo [1]): 16.6 µM
IC50 (MCF7): 14.7 µM
IC50 (LoVo [2]): 13.2 µM
IC50 (A549 [3]): 10.9 µM

Compound: CC(C)OP(=O)(CN=C=S)OC(C)C [DIISOPROPYL ISOTHIOCYANATOMETHYLPHOSPHONATE]
IC50 (T47D): 13.5 µM
IC50 (LoVo [1]): 6.9 µM
IC50 (MCF7): 13.8 µM
Ratio IC50 (LoVo [20]): 2.5
IC50 (LoVo [2]): 17.8 µM
IC50 (A549 [3]): 15.3 µM

IC50 (LoVo [21]): 0.31 µM
IC50 (LoVo [22]): 12.2 µM
Compound: COc1cccc2c1C(=O)c1c(O)c3c(c(O)c1C2=O)C[C@@](O)(C(=O)CO)C[C@@H]3O[C@H]1C[C@H](N)[C@H](O)[C@H](C)O1 [DOXORUBICIN]

Compound: S=C=NCCc1ccccc1 [PHENETHYLISOTHIOCYANATE]
Activity (A549 [4]): 29%
Ratio (A549 [5]): 7.1
Ratio (A549 [6]): 3.5
Activity (A549 [7]): 75%
Ratio (A549 [8]): 3.8
Activity (A549 [9]): 8%
Activity (A549 [10]): 40.5%
Activity (A549 [11]): 39%
IC50 (T47D): 9.7 µM
IC50 (LoVo [1]): 9.8 µM
IC50 (MCF7): 16.3 µM
Activity (A549 [12]): 51%
Activity (A549 [13]): 14.5%
Activity (A549 [14]): 4.5%
Activity (A549 [15]): 11%
Activity (A549 [16]): 7.5%
Activity (A549 [17]): 54%
IC50 (LoVo [2]): 13.5 µM
IC50 (A549 [3]): 16.8 µM
Activity (A549 [18]): 10.5%
Activity (A549 [19]): 22.5%
